Measured values taken from patent US11136370B2, “Compositions and methods for thrombin generation assay” (The Scripps Research Institute, priority 2016, dated 2021).
Entries after “also recorded” stand apart in the source; their conditions may differ.

Key:
[1] = tested on: fibrillar collagen type I; test: Blood perfusion over fibrillar collagen type I, volume of platelet aggregates and fibrin; type: cell-based, human; settings: blood of treated patients, collagen surface
Experimental: The volume of platelet aggregates and deposited fibrin was measured by confocal microscopy. Statistical analysis by one-way ANOVA and Tukey post-test. *P<0.05; **P<0.01; ***P<0.001.
Glass coverslips treated with 0.2 mg/ml poly-L-lysine for 6 h at 37° C. were coated with rTF for 18-20 hours at 37° C. or 2.5 mg/ml acid-insoluble type I collagen for 2 hours at 22-25° C. Then they were rinsed with pH 7.4 buffered-saline, assembled in a rectangular flow chamber with a 125 μm-high silicon gasket and positioned on a confocal microscope stage for analysis. Venous blood for testing was collected into final 10.9 mM trisodium citrate using a plastic syringe for normal volunteers or Vacutainer tubes (Becton Dickinson, Buccinasco, Milan) for patients and controls. Before perfusion at a flow rate yielding an initial wall shear rate of 300 s^−1 maintained with a syringe pump (Harvard Apparatus, Holliston, Mass.), CaCl2 was added to obtain 1.29 mM Ca^2+. In the blood of patients—potentially hypercoagulable—and related controls, lepirudin (50 nM) was also added to neutralize thrombin possibly generated before testing. […] For experiments with WT and mutant FVIIa, cells from group O citrated blood, containing 50 μg/ml CTI and 10 U/ml (ADPase activity) apyrase, were washed free of plasma by sequential centrifugation steps at 1500 g for 7 min. After the first, plasma was replaced with an equal volume of calcium-free Tyrode buffer, pH 6.5, with 5 U/ml apyrase; then with buffer and 1.25 U/ml apyrase; and finally with human FVII deficient plasma (George King Bio-Medical, Overland Park, Kans.) up to the original blood volume. […] Experiments in Milan (Italy) were performed with a Leica TCS SP5 microscope and HCX PL APO 63x/1.40 NA oil immersion objective (Leica Microsystems GmbH, Wetzlar, Germany); in La Jolla (California) with a Zeiss Axiovert 135M/LSM 410 and Plan-Apochromat 40x/1.40 NA oil immersion objective (Carl Zeiss AG, Oberkochen, Germany).
Platelets adhering and aggregating onto the surface were visualized by adding quinacrine-HCl (mepacrine; 10 μg/ml; Sigma-Aldrich) to blood. Deposited fibrin was visualized with Alexa Fluor 546-labeled (Invitrogen) mouse monoclonal IgG (50 μg/ml) specific for the B chain of mouse and human fibrin (HB-8545; ATCC). […] This was followed by buffer (DMEM) for 2 minutes to facilitate fibrin quantification by confocal z section analysis using a Zeiss Axiovert 135M/LSM 410 microscope (Carl Zeiss) and Plan-Apochromat×63/1.40 NA oil immersion objective. […] Deposited fibrin volume was measured from confocal sections collected at 4 preset positions in the flow chamber. Total volume of deposited platelets and fibrin was calculated from the sum of the respective area coverage per section multiplied by the z interval (2 μm). […]

[2] = target: T1, nascent TF-FVIIa-FXa (Homo sapiens, UniProt P00742); test: FVIII activation (FVIIIa generation, WB) by nascent FXa generated by TF-FVIIa; type: biochemical; settings: for effect on FVIII activation by nascent FXa generated by TF-FVIIa: therapeutic concentrations, 50-450 nM
T1 construct: purchased Haematologic Technologies (FX); Siemens Healthcare Diagnostics (rTF); FVIIa made in house
T1 sequence (P00742 41-179 limits assumed): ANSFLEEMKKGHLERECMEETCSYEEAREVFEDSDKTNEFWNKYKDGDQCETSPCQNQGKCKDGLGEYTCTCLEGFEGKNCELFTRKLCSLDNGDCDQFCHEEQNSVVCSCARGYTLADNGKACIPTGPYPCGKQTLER
T1 sequence (P00742 235-488 limits assumed): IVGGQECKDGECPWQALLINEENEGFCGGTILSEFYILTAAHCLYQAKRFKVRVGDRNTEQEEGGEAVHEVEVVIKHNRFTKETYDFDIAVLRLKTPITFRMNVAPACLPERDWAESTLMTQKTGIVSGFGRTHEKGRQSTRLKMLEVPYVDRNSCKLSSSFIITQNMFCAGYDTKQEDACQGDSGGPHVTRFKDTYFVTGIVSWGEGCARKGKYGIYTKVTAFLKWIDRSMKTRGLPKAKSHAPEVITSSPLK
Experimental: Thrombin was quantified with a fluorogenic substrate for calculation of % inhibition. […] Reactions were initiated by 100 pM FXa with 50 pM rTF as the phospholipid surface (top); or the preformed complex of 50 pM TF, 100 pM iFVIIa, 100 pM FXa, 5 nM NAPc2 (middle); or 50 pM TF/200 pM FVIIa/135 nM FX (bottom) in mixtures of 0.7 nM FVIII, 3 nM FV, 200 nM lepirudin, 10 nM TFPI, and 2.5 mM CaCl2 incubated for 120 s at 37° C. […] (n=3-4). […] Endogenous thrombin potential (ETP, right) was calculated from the area under the TG curve (n=2). Results in (E) and (F) are shown as 25th-75th percentile bars with min to max whiskers or min to max bars (when n≤3) with a line at the median. Differences were evaluated with the ANOVA/Tukey test (performed after log 10 transformation of the data shown in E); *P<0.05, ***P<0.001.
(A) WB analysis (representing 3) of the effect of anti-FVIIa MoAbs 3G12 and 12C7 (20 μg/ml) on TF-dependent FVIIIa generation after 120 s in reactions including 50 pM TF, 200 pM FVIIa, 135 nM FX, 3.5 nM FVIII, 3 nM FV and 200 nM lepirudin; quantification as in FIG. 4E. […] Reactions contained 50 pM TF, 200 pM FVIIa, 0.7 nM FVIII, 3 nM FV, 135 nM FX, 10 nM TFPI, 200 nM lepirudin and 2.5 mM CaCl2; anti-FVIIa MoAbs or control mouse IgG were at 20 μg/ml; the function-blocking anti-FVIII MoAb 8D4 was at 8 μg/ml. (C) Effect of anti-FVIIa MoAbs 3G12 and 12C7 (20 μg/ml), without or with anti-FVIII MoAb 8D4 (8 μg/ml) or anti-FXI MoAb O1A6 (20 μg/ml), on TG in normal PRP. […] Results in (B) and (D) are shown as 25th-75th percentile bars with min to max whiskers or min to max bars (when n≤3) with a line at the median. Differences were evaluated by a two-tailed t-test with Welch correction (A) or the ANOVA/Tukey test (B and D). *P<0.05, **P<0.01, ***P<0.001.
Coagulation reaction products were separated by reducing sodium dodecyl sulfate-polyacrylamide gel electrophoresis (SDS-PAGE), except for the analysis of FVIII activation in the presence of anti-FVIIa MoAbs that was performed under non-reducing conditions. After transfer to a polyvinylidene fluoride membrane, blots were probed with MoAb C5, biotinylated or not (0.5 μg/ml), for FVIII activation; MoAb AHV-5146 (1 μg/ml) for FV. Quantitative infrared detection of FVIIIa and FVa was obtained with IRDye 800CW-conjugated anti-mouse IgG or streptavidin followed by analysis with the Odyssey infrared imager (Li-COR, Lincoln, Nebr.). Concentrations were calculated by calibration with known quantities of FVIIIa and FVa.
The synthetic reaction mixtures comprised 0.7 nM FVIII, 3 nM FV, 135 nM FX, 104 prothrombin in 50 mM Tris-buffered saline, pH 7.4, with 0.1% BSA. […] Reactions to prevent thrombin effects were carried out in the presence of 200 nM lepirudin or 4 μM DAPA. Reactions were initiated by adding 0.6 to 400 pM rTF, 200 to 500 pM FVIIa or/and 10 nM FIXa, followed by 2.5 mM CaCl2 and incubation at 37° C. for the indicated times. 10 mM EDTA was then added to quench the reaction. Generation of FXa, FIIa and thrombin were evaluated by measuring amidolytic activity toward the chromogenic substrate S-2765 (180 μM; N-α-benzyloxycarbonyl-D-arginyl-L-glycyl-L-arginine-p-nitroaniline; DiaPharma, West Chester, Ohio) and the fluorogenic substrate Z-Gly-Gly-Arg-AMC (360 μM) respectively.

SMILES: O=C(NC[C@H]1CN(c2ccc(N3CCOCC3=O)cc2)C(=O)O1)c1ccc(Cl)s1 [Rivaroxaban]
- mean volume of platelet aggregates vs controls [1]: not significantly different
- volume of deposited fibrin vs controls [1]: not significantly decreased; also recorded: not significantly different from normal
- FVIIIa generation ([2]; 500 nM rivaroxaban): sustained
- FVIIIa generation, coagulation initiated by FVIIa ([2]; TFPI and rivaroxaban combined, rivaroxaban as high as 450 nM, lepirudin present): substantial FVIIIa generation
- effect on FVIII activation by nascent FXa generated by TF-FVIIa [2]: only marginally affected
- effect on FVIII activation by nascent FXa generated by TF-FVIIa ([2]; listed as rivaroxaban): minimally affected; also recorded: only marginally reduced
